The compounds below were run against T1, full length active recombinant SYK enzyme (Homo sapiens, UniProt P43405) (assay: Inhibition of Syk tyrosine phosphorylation activity (LANCE TR-FRET kinase assay)). Conditions: activity in the Syk assays, class symbols.
T1 construct: full length active recombinant SYK enzyme (Millipore, Calif.); purchased Millipore
Assay type: biochemical
Method in brief: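 1 nM full-length active recombinant SYK phosphorylated 550 nM biotin-DEEDYESP-OH with 100 μM ATP in 50 mM Tris pH 7.5, 5 mM MgCl2, 1 mM DTT and 3% DMSO for 1 h at room temperature. After EDTA quench, Eu-anti-phosphotyrosine/SA-APC TR-FRET was read after 1 h. IC50s came from non-linear regression.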

Compound	IC50 [nM]
Cc1nsc(Nc2nc(N[C@@H]3CCCC[C@@H]3N)cnc2C(N)=O)c1C [Example 131, 5-(((1R,2S)-2-aminocyclohexyl)amino)-3-((3,4-dimethylisothiazol-5-yl)amino)pyrazine-2-carboxamide]	< 1
CC[C@@H](Nc1cnc(C(N)=O)c(Nc2snc(C)c2Br)n1)C(N)=O [Example 132, (R)-5-((1-amino-1-oxobutan-2-yl)amino)-3-((4-bromo-3-methylisothiazol-5-yl)amino)pyrazine-2-carboxamide]	10 to 100
CC[C@@H](Nc1cnc(C(N)=O)c(Nc2snc(C)c2I)n1)C(N)=O [Example 133, (R)-5-((1-amino-1-oxobutan-2-yl)amino)-3-((4-iodo-3-methylisothiazol-5-yl)amino)pyrazine-2-carboxamide]	10 to 100
CC[C@@H](Nc1nc(Nc2snc(C)c2I)c(C(N)=O)nc1I)C(N)=O [Example 134, (R)-5-((1-amino-1-oxobutan-2-yl)amino)-6-iodo-3-((4-iodo-3-methylisothiazol-5-yl)amino)pyrazine-2-carboxamide]	100 to 1000
CC[C@@H](Nc1cnc(C(N)=O)c(Nc2snc(C)c2Cl)n1)C(N)=O [Example 135, (R)-5-((1-amino-1-oxobutan-2-yl)amino)-3-((4-chloro-3-methylisothiazol-5-yl)amino)pyrazine-2-carboxamide]	10 to 100
Cc1cc(Nc2nc(N[C@H](CC3CC3)C(N)=O)c(Cl)nc2C(N)=O)sn1 [Example 136, (R)-5-((1-amino-3-cyclopropyl-1-oxopropan-2-yl)amino)-6-chloro-3-((3-methylisothiazol-5-yl)amino)pyrazine-2-carboxamide]	10 to 100
CC[C@@H](Nc1nc(Nc2cc(C)ns2)c(C(N)=O)nc1Cl)C(N)=O [Example 137, (R)-5-((1-amino-1-oxobutan-2-yl)amino)-6-chloro-3-((3-methylisothiazol-5-yl)amino)pyrazine-2-carboxamide]	10 to 100
Cc1nsc(Nc2nc(N[C@@H]3CCCC[C@@H]3N)cnc2C(N)=O)c1F [Example 138]	1 to 10
Cc1cc(Nc2nc(N[C@H]3CN[C@@H](CO)C3)cnc2C(N)=O)sn1 [Example 139, 5-(((3R,5R)-5-(hydroxymethyl)pyrrolidin-3-yl)amino)-3-((3-methylisothiazol-5-yl)amino)pyrazine-2-carboxamide]	10 to 100
NC(=O)c1ncc(N[C@H]2CN[C@@H](CO)C2)nc1Nc1cnc2ccc(F)cc2c1 [Example 140, 3-((6-fluoroquinolin-3-yl)amino)-5-(((3R,5R)-5-(hydroxymethyl)pyrrolidin-3-yl)amino)pyrazine-2-carboxamide]	1 to 10
COc1ccc(Nc2nc(N[C@@H]3CCCC[C@@H]3N)cnc2C(N)=O)cc1OC [Example 142, 5-((1R,2S)-2-aminocyclohexylamino)-3-(3,4-dimethoxyphenylamino)pyrazine-2-carboxamide]	1 to 10
Cc1cc(Nc2nc(N[C@@H]3CCCC[C@@H]3N)cnc2C(N)=O)ccc1N1CCOCC1 [Example 143, 5-((1R,2S)-2-aminocyclohexylamino)-3-(3-methyl-4-morpholinophenylamino)pyrazine-2-carboxamide]	1 to 10
CS(=O)(=O)Cc1ccc(Nc2nc(N[C@@H]3CCCC[C@@H]3N)cnc2C(N)=O)cc1 [Example 145, 5-((1R,2S)-2-aminocyclohexylamino)-3-(4-(methylsulfonylmethyl)phenylamino)pyrazine-2-carboxamide]	10 to 100
CS(=O)(=O)c1ccc(Nc2nc(N[C@@H]3CCCC[C@@H]3N)cnc2C(N)=O)cc1 [Example 153, 5-((1R,2S)-2-aminocyclohexylamino)-3-(4-(methylsulfonyl)phenylamino)pyrazine-2-carboxamide]	1 to 10
CS(=O)(=O)c1cccc(Nc2nc(N[C@@H]3CCCC[C@@H]3N)cnc2C(N)=O)c1 [Example 154, 5-((1R,2S)-2-aminocyclohexylamino)-3-(3-(methylsulfonyl)phenylamino)pyrazine-2-carboxamide]	10 to 100
COc1cc(Nc2nc(N[C@H](CC3CC3)C(N)=O)cnc2C(N)=O)cc(OC)c1 [Example 164, (R)-5-(1-amino-3-cyclopropyl-1-oxopropan-2-ylamino)-3-(3,5-dimethoxyphenylamino)pyrazine-2-carboxamide]	1 to 10
COc1ccc(Nc2nc(N[C@@H]3CCCC(F)(F)[C@@H]3N)cnc2C(N)=O)cc1OC [Example 165, 5-((1R,2R)-2-amino-3,3-difluorocyclohexylamino)-3-(3,4-dimethoxyphenylamino)pyrazine-2-carboxamide]	1 to 10

Second part, the compound after the results:

IC50 [nM]	Compound
10 to 100	COc1ccc(Nc2nc(N[C@@H](C(N)=O)C(C)C)cnc2C(N)=O)cc1OC [Example 141, (R)-5-(1-amino-3-methyl-1-oxobutan-2-ylamino)-3-(3,4-dimethoxyphenylamino)pyrazine-2-carboxamide]
100 to 1000	CC(C)[C@@H](Nc1cnc(C(N)=O)c(Nc2cccc(CN3CCOCC3)c2)n1)C(N)=O [Example 144, (R)-5-(1-amino-3-methyl-1-oxobutan-2-ylamino)-3-(3-(morpholinomethyl)phenylamino)pyrazine-2-carboxamide]
100 to 1000	CC(C)[C@@H](Nc1cnc(C(N)=O)c(Nc2ccc3c(c2)OCO3)n1)C(N)=O [Example 146, (R)-5-(1-amino-3-methyl-1-oxobutan-2-ylamino)-3-(benzo[d][1,3]dioxol-5-ylamino)pyrazine-2-carboxamide]
100 to 1000	CC(C)[C@@H](Nc1cnc(C(N)=O)c(Nc2cccc(OC(F)(F)F)c2)n1)C(N)=O [Example 147, (R)-5-(1-amino-3-methyl-1-oxobutan-2-ylamino)-3-(3-(trifluoromethoxy)phenylamino)pyrazine-2-carboxamide]
100 to 1000	CC(C)[C@@H](Nc1cnc(C(N)=O)c(Nc2ccc(CN3CCOCC3)cc2)n1)C(N)=O [Example 148, (R)-5-(1-amino-3-methyl-1-oxobutan-2-ylamino)-3-(4-(morpholinomethyl)phenylamino)pyrazine-2-carboxamide]
10 to 100	CC(C)[C@@H](Nc1cnc(C(N)=O)c(Nc2ccc(-n3ccnc3)cc2)n1)C(N)=O [Example 149, (R)-3-(4-(1H-imidazol-1-yl)phenylamino)-5-(1-amino-3-methyl-1-oxobutan-2-ylamino)pyrazine-2-carboxamide]
100 to 1000	CC(C)[C@@H](Nc1cnc(C(N)=O)c(Nc2ccc(CS(C)(=O)=O)cc2)n1)C(N)=O [Example 150, (R)-5-(1-amino-3-methyl-1-oxobutan-2-ylamino)-3-(4-(methylsulfonylmethyl)phenylamino)pyrazine-2-carboxamide]
10 to 100	CC[C@@H](Nc1cnc(C(N)=O)c(Nc2ccc(OC)c(OC)c2)n1)C(N)=O [Example 151, (R)-5-(1-amino-1-oxobutan-2-ylamino)-3-(3,4-dimethoxyphenylamino)pyrazine-2-carboxamide]
10 to 100	CC[C@@H](Nc1cnc(C(N)=O)c(Nc2ccc(C)cc2)n1)C(N)=O [Example 152, (R)-5-(1-amino-1-oxobutan-2-ylamino)-3-(p-tolylamino)pyrazine-2-carboxamide]
10 to 100	Cc1ccc(Nc2nc(N[C@@H](C(N)=O)C(C)C)cnc2C(N)=O)cc1 [Example 155, (R)-5-(1-amino-3-methyl-1-oxobutan-2-ylamino)-3-(p-tolylamino)pyrazine-2-carboxamide]
10 to 100	CC(C)[C@@H](Nc1cnc(C(N)=O)c(Nc2ccc(S(=O)(=O)N(C)C)cc2)n1)C(N)=O [Example 156, (R)-5-(1-amino-3-methyl-1-oxobutan-2-ylamino)-3-(4-(N,N-dimethylsulfamoyl)phenylamino)pyrazine-2-carboxamide]
100 to 1000	CC(=O)N(C)c1ccc(Nc2nc(N[C@@H](C(N)=O)C(C)C)cnc2C(N)=O)cc1 [Example 157, (R)-5-(1-amino-3-methyl-1-oxobutan-2-ylamino)-3-(4-(N-methylacetamido)phenylamino)pyrazine-2-carboxamide]
10 to 100	CC[C@@H](Nc1cnc(C(N)=O)c(Nc2cc(OC)cc(OC)c2)n1)C(N)=O [Example 158, (R)-5-(1-amino-1-oxobutan-2-ylamino)-3-(3,5-dimethoxyphenylamino)pyrazine-2-carboxamide]
10 to 100	CC[C@@H](Nc1cnc(C(N)=O)c(Nc2ccc(S(C)(=O)=O)cc2)n1)C(N)=O [Example 159, (R)-5-(1-amino-1-oxobutan-2-ylamino)-3-(4-(methylsulfonyl)phenylamino)pyrazine-2-carboxamide]
10 to 100	CC(C)[C@@H](Nc1cnc(C(N)=O)c(Nc2ccc(S(C)(=O)=O)cc2)n1)C(N)=O [Example 160, (R)-5-(1-amino-3-methyl-1-oxobutan-2-ylamino)-3-(4-(methylsulfonyl)phenylamino)pyrazine-2-carboxamide]
100 to 1000	CC[C@@H](Nc1cnc(C(N)=O)c(Nc2ccc(N(C)C(C)=O)cc2)n1)C(N)=O [Example 161, (R)-5-(1-amino-1-oxobutan-2-ylamino)-3-(4-(N-methylacetamido)phenylamino)pyrazine-2-carboxamide]
10 to 100	Cc1ccc(Nc2nc(N[C@@H](C(N)=O)C(C)C)cnc2C(N)=O)cc1C [Example 162, (R)-5-(1-amino-3-methyl-1-oxobutan-2-ylamino)-3-(3,4-dimethylphenylamino)pyrazine-2-carboxamide]
10 to 100	Cc1cc(C)cc(Nc2nc(N[C@@H](C(N)=O)C(C)C)cnc2C(N)=O)c1 [Example 163, (R)-5-(1-amino-3-methyl-1-oxobutan-2-ylamino)-3-(3,5-dimethylphenylamino)pyrazine-2-carboxamide]
1 to 10	CS(=O)(=O)c1ccc(Nc2nc(N[C@H](CC3CC3)C(N)=O)cnc2C(N)=O)cc1 [Example 166, (R)-5-(1-amino-3-cyclopropyl-1-oxopropan-2-ylamino)-3-(4-(methylsulfonyl)phenylamino)pyrazine-2-carboxamide]

Reference: US9359308B2, “Pyrazine kinase inhibitors” (Portola Pharmaceuticals, Inc., priority 2011, dated 2016)
